Assay [1] can be described thus: Cytotoxicity against human KATO III cells after 24 hrs by FACS analysis. In kind it is functional, cell-based, KATO III cell. (Flow cytometry measures light scatter and fluorescence of single cells or particles in a stream.)
Assay [2] relates to MCF7. In words: Cytotoxicity against human MCF7 cells after 24 hrs by FACS analysis. In kind it is functional, cell-based. Conditions: MCF7, 24 h.
Assay [3] deals with A549. In words: Cytotoxicity against human A549 cells after 24 hrs by FACS analysis. The class given is functional, cell-based. The settings on record: A549, 24 h.
Assay [4] has as its system A549. In words: Inhibition of Akt phosphorylation in insulin-stimulated human A549 cells at 10 uM treated 2 hrs before insulin stimulation measured after 30 mins by ELISA. In kind it is cell-based. On the technique in general: In an ELISA, binding on a coated surface is turned into a signal by an enzyme label.
Assay [5] can be described thus: Inhibition of Akt phosphorylation in insulin-stimulated human A549 cells treated 2 hrs before insulin stimulation measured after 30 mins by ELISA. The class given is cell-based.
The test system of assay [6] is A549. In words: Ratio of erufosine IC50 to compound IC50 for inhibition of Akt phosphorylation in insulin-stimulated human A549 cells. In kind it is cell-based.
Assay [7] concerns A549. In words: Ratio of miltefosine IC50 to compound IC50 for inhibition of Akt phosphorylation in insulin-stimulated human A549 cells. In kind it is cell-based.
Assay [8] has as its system A549. Briefly: Ratio of perifosine IC50 to compound IC50 for inhibition of Akt phosphorylation in insulin-stimulated human A549 cells. The class given is cell-based.

Usually IC50 stands for the concentration that inhibits the measured activity by half. In general, inhibition refers to the percentage by which the read-out fell short of the control.

With `CCCCCCCCCCCCOC[C@@H]1CCC[C@H]1OP(=O)([O-])OCC[N+](C)(C)C` (racemic), the values for the half-inhibitory concentration (IC50) in assay [1], in assay [2] and in assay [3] were 10.6 µM, 11.8 µM and 11 µM, respectively. This molecule returned an inhibition in assay [4] of 36.2%.

In the case of `CCCCCCCCCCCCCOC[C@@H]1CCC[C@H]1OP(=O)([O-])OCC[N+](C)(C)C` (racemic), the IC50 was 10.2 µM in assay [1], 7.7 µM in assay [2], 6.1 µM in assay [3] and 6.6 µM in assay [5]. Also, the inhibition in assay [4] turned out to be 65.4%.

Regarding `CCCCCCCCCCCCCCCCCCOC[C@@H]1CCC[C@H]1OP(=O)([O-])OCC[N+](C)(C)C` (racemic), the IC50 in assay [1] is 10.4 µM; in assay [2] it was 13.8 µM; in assay [3] it was 10.8 µM; in assay [5] it was 10.3 µM. For the same molecule, the inhibition in assay [4] came out at 63.4%.

With `CCCCCCCCCCCCCCCCCCCCOC[C@@H]1CCC[C@H]1OP(=O)([O-])OCC[N+](C)(C)C` (racemic), the Ratio IC50 in assay [6] came to 3; in assay [7], 3; in assay [8] it was 2. The IC50 in assay [1] was 8.7 µM; in assay [2], 10.8 µM; in assay [3], 6.4 µM; in assay [5] it was 3.6 µM. The inhibition in assay [4] is 74.4%.

Take `CCCCCCCCCCCCCCCCCCCCCCOC[C@@H]1CCC[C@H]1OP(=O)([O-])OCC[N+](C)(C)C` (racemic): the IC50 in assay [1] came out at 11.9 µM; in assay [2] it was 16.3 µM; in assay [3], 16 µM; in assay [5] it was 10 µM. The same molecule came in with an inhibition in assay [4] of 58.2%.

Turning to `CCCCCCCCCCCCO[C@@H]1CCC[C@H]1COP(=O)([O-])OCC[N+](C)(C)C` (racemic), the results for the 50% inhibitory concentration (IC50) in assay [1] and in assay [2] were 10.4 µM and 14.7 µM, respectively. In assay [4], this molecule came in with an inhibition of 31.7%.

As for `CCCCCCCCCCCCCO[C@@H]1CCC[C@H]1COP(=O)([O-])OCC[N+](C)(C)C` (racemic), the results for the 50% inhibitory concentration (IC50) in assay [1], in assay [2] and in assay [3] were 10.1 µM, 17.8 µM and 9.4 µM, respectively. The same molecule returned an inhibition in assay [4] of 40.8%.

As to `CCCCCCCCCCCCCCCCCCO[C@@H]1CCC[C@H]1COP(=O)([O-])OCC[N+](C)(C)C` (racemic), the values for the half-maximal inhibitory concentration (IC50) in assay [1], in assay [2] and in assay [3] were 8.2 µM, 15.7 µM and 19.3 µM, respectively. In addition, the inhibition in assay [4] is 32.4%.

Take `CCCCCCCCCCCCCCCCCCCCO[C@@H]1CCC[C@H]1COP(=O)([O-])OCC[N+](C)(C)C` (racemic): the IC50 in assay [1] worked out at 7.7 µM; in assay [2], 15.6 µM; in assay [3], 9.8 µM; in assay [5], 9.1 µM. The inhibition in assay [4] came to 58.9%.

Take `CCCCCCCCCCCCCCCCCCCCCCO[C@@H]1CCC[C@H]1COP(=O)([O-])OCC[N+](C)(C)C` (racemic): the concentration for half-maximal inhibition (IC50) in assay [1] was determined as 17.6 µM; in assay [2], 19.5 µM; in assay [3], 11.1 µM; in assay [5] it was 6.5 µM. In assay [4], this molecule registered an inhibition of 68%.

In the case of `CCCCCCCCCCCCO[C@H]1CCC[C@H]1COP(=O)([O-])OCC[N+](C)(C)C` (racemic), the IC50 was 7.4 µM in assay [1], 24.2 µM in assay [2] and 26.3 µM in assay [3]. In addition, in assay [4], the inhibition was 30.4%.

On to `CCCCCCCCCCCCCO[C@H]1CCC[C@H]1COP(=O)([O-])OCC[N+](C)(C)C` (racemic), for which the concentration for half-maximal inhibition (IC50) in assay [1] was found to be 12.1 µM; in assay [2] it was 10.7 µM; in assay [3] it was 10.2 µM. The molecule also registered an inhibition in assay [4] of 44.7%.

Take `CCCCCCCCCCCCCCCCCCO[C@H]1CCC[C@H]1COP(=O)([O-])OCC[N+](C)(C)C` (racemic): the half-inhibitory concentration (IC50) was found to be 9.2 µM in assay [1], 13.2 µM in assay [2] and 17.8 µM in assay [3]. Also, the inhibition in assay [4] was 35.2%.

With `CCCCCCCCCCCCCCCCCCCCO[C@H]1CCC[C@H]1COP(=O)([O-])OCC[N+](C)(C)C` (racemic), the IC50 in assay [1] was 8.8 µM; in assay [2], 16.3 µM; in assay [3], 9.7 µM; in assay [5], 16.3 µM. This molecule gave an inhibition in assay [4] of 54.4%.

With `CCCCCCCCCCCCCCCCCCCCCCO[C@H]1CCC[C@H]1COP(=O)([O-])OCC[N+](C)(C)C` (racemic), the concentration for half-maximal inhibition (IC50) in assay [1] was determined as 8.6 µM; in assay [2] it was 12.8 µM; in assay [3], 23.3 µM. The molecule also came in with an inhibition in assay [4] of 36.2%.

Regarding `CCCCCCCCCCCCCCCCOP(=O)([O-])OCC[N+](C)(C)C` [MILTEFOSINE], the 50% inhibitory concentration (IC50) in assay [1] was determined as 12.1 µM; in assay [2], 11.4 µM; in assay [3], 9.7 µM; in assay [5], 9.6 µM. In assay [4], the inhibition was 56.3%.

Take `CCCCCCCCCCCCCCCCCCOP(=O)([O-])OC1CC[N+](C)(C)CC1` [PERIFOSINE]: the IC50 was 12.8 µM in assay [1], 13.3 µM in assay [2], 7 µM in assay [3] and 5.3 µM in assay [5]. The same molecule yielded an inhibition in assay [4] of 68%.

(Values after ChEMBL document CHEMBL1926533, “Synthesis and biological evaluation of cyclopentane-linked alkyl phosphocholines as potential anticancer agents that act by inhibiting Akt phosphorylation” (Eur J Med Chem, 2012).)
